Like-named read-outs stand apart in the source and are kept apart here.
Biological target: FimH (Escherichia coli, UniProt Q1R2J4)
Details: for HAI Titer EC>50: Table 21
[1] = Table 18, Examples 30-36 numbering
[2] = Table 19, Examples 30-36 numbering
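Note: hemagglutination inhibition of guinea pig erythrocytes agglutinated by type 1 piliated uropathogenic E. coli via FimH mannose binding, quantified through serial dilutions of compound.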

Procedure: In some embodiments, activity of the compound is measured using hemmagglutination titer of guinea pig red blood cells. Hemagglutination of guinea pig red blood cells by type1 piliated UPEC is dependent upon FimH mannose binding ability and serial dilutions allow a quantitative analysis.
Biological activity against FimH was evaluated using a guinea pig red blood cell-based hemagglutination (HA) assay (ref) in which the concentration of the mannoside on reducing agglutination by 50% was used as the primary endpoint (50% HA titer).
Hemagglutination of guinea pig red blood cells by type1 piliated UPEC is dependent upon FimH mannose binding ability. Serial dilutions allow a quantitative analysis using this assay.
Hemagglutination assays for mannose-sensitive agglutination of guinea pig red blood cells were performed as previously described.

OCC1OC(Oc2ccc(-c3ccccc3O)cc2)C(O)C(O)C1O (centres unmarked) [Compound 3ZFH111, 2-(hydroxymethyl)-6-[4-(2-hydroxyphenyl)phenoxy]tetrahydropyran-3,4,5-triol]
HAI Titer EC>90: 8.000 µM

CNC(=O)c1cccc(-c2ccc([C@H](O)C3OC(CO)C(O)C(O)C3O)cc2)c1 (some centres unmarked) [Compound 5ZFH48]
HAI Titer EC>50 (ZFH/JWJ codes): 24.000 µM

CNS(=O)(=O)c1ccccc1-c1ccc(OC2OC(CO)C(O)C(O)C2O)cc1 (centres unmarked) [Compound 3ZFH176, N-methyl-2-[4-[3,4,5-trihydroxy-6-(hydroxymethyl)tetrahydropyran-2-yl]oxyphenyl]benzenesulfonamide]
HAI Titer EC>90: 4.000 µM

CNC(=O)c1cccc(-c2ccc([C@@H](O)C3OC(CO)C(O)C(O)C3O)cc2)c1 (some centres unmarked) [Compound 5ZFH38]
HAI Titer EC>50 (ZFH/JWJ codes): 0.250 µM

O=C(NCCCCOC1OC(CO)C(O)C(O)C1O)c1ccc(-c2c3ccc(=O)cc-3oc3cc(O)ccc23)c(C(=O)O)c1 (centres unmarked) [Compound 1ZFH134B, 2-(3-hydroxy-6-oxo-xanthen-9-yl)-5-[4-[3,4,5-trihydroxy-6-(hydroxymethyl)tetrahydropyran-2-yl]oxybutylcarbamoyl]benzoic acid]
HAI Titer EC>90: 125.000 µM

NC1C(O)C(CO)OC(OCc2ccccc2)C1O [Benzyl 3-amino-3-deoxy-a-D-mannoside, reference compound]
HAI Titer EC>90 (mM): >1000 µM

OCC1OC(Oc2cc(F)c(F)c(F)c2)C(O)C(O)C1O (centres unmarked) [Compound 1ZFH282, 2-(hydroxymethyl)-6-(3,4,5-trifluorophenoxy)tetrahydropyran-3,4,5-triol]
HAI Titer EC>90: 125.000 µM

OC[C@@H]1OC(Oc2ccc(-c3ccc4ccncc4c3)cc2)[C@H](O)[C@@H](O)[C@@H]1O (stereo partly drawn) [Compound 4ZFH275, (2S,3S,4S,5R)-2-(hydroxymethyl)-6-[4-(7-isoquinolyl)phenoxy]tetrahydropyran-3,4,5-triol]
HAI Titer EC>90: 0.750 µM
HAI Titer EC>50 (ZFH/JWJ codes): 0.750 µM
HAI Titer EC>90 (Table 22, ZFH/JWJ codes): 0.750 µM

COC(=O)c1cccc(-c2ccc(NC3OC(CO)C(O)C(O)C3O)cc2)c1 (centres unmarked) [Compound 4ZFH44, methyl 3-[4-[[3,4,5-trihydroxy-6-(hydroxymethyl)tetrahydropyran-2-yl]amino]phenyl]benzoate]
HAI Titer EC>90: 4.000 µM

CN(C)C(=NCCNC(=O)c1cccc(-c2ccc(OC3OC(CO)C(O)C(O)C3O)cc2)c1)N(C)C (centres unmarked) [Compound 3ZFH270, N-[2-[bis(dimethylamino)methyleneamino]ethyl]-3-[4-[3,4,5-trihydroxy-6-(hydroxymethyl)tetrahydropyran-2-yl]oxyphenyl]benzamide]
HAI Titer EC>90: 2.000 µM

O=C(Nc1ccncc1)c1cccc(-c2ccc(O[C@H]3O[C@H](CO)[C@@H](O)[C@H](O)[C@@H]3O)cc2)c1 [Compound 10e, N-(4-Pyridyl)-3-[4-[(2R,3S,4S,5S,6R)-3,4,5-trihydroxy-6-(hydroxymethyl)tetrahydropyran-2-yl]oxyphenyl]benzamide]
HAI Titer EC>90 [1]: 0.25 µM

COC(=O)c1cncc(-c2ccc(O[C@H]3O[C@H](CO)[C@@H](O)[C@H](O)[C@@H]3O)cc2)c1 [Compound 12b, Methyl 5-[4-[(2R,3S,4S,5S,6R)-3,4,5-trihydroxy-6-(hydroxymethyl)tetrahydropyran-2-yl]oxyphenyl]pyridine-3-carboxylate]
HAI Titer EC>90 [2]: 0.19 µM

O=C(NCCCCOC1OC(CO)C(O)C(O)C1O)c1ccc(C(=O)O)c(-c2c3ccc(=O)cc-3oc3cc(O)ccc23)c1 (centres unmarked) [Compound 1ZFH134A, 2-(3-hydroxy-6-oxo-xanthen-9-yl)-4-[4-[3,4,5-trihydroxy-6-(hydroxymethyl)tetrahydropyran-2-yl]oxybutylcarbamoyl]benzoic acid]
HAI Titer EC>90: 125.000 µM

CN(C)C(=O)c1cccc(-c2ccc(OC3OC(CO)C(O)C(O)C3O)cc2)c1 (centres unmarked) [JJ-I-93, N,N-dimethyl-3-[4-[3,4,5-trihydroxy-6-(hydroxymethyl)tetrahydropyran-2-yl]oxyphenyl]benzamide]
HAI Titer EC>90: 3.000 µM

OCC1OC(Oc2cc(C(F)(F)F)cc(C(F)(F)F)c2)C(O)C(O)C1O (centres unmarked) [Compound 1ZFH274, 2-[3,5-bis(trifluoromethyl)phenoxy]-6-(hydroxymethyl)tetrahydropyran-3,4,5-triol]
HAI Titer EC>90: 32.000 µM

O=C(c1ccccc1)c1cccc(OC2OC(CO)C(O)C(O)C2O)c1 (centres unmarked) [Compound 1ZFH263, phenyl-[3-[3,4,5-trihydroxy-6-(hydroxymethyl)tetrahydropyran-2-yl]oxyphenyl]methanone]
HAI Titer EC>90: 8.000 µM

OCc1cccc(-c2ccc(OC3OC(CO)C(O)C(O)C3O)cc2)c1 (centres unmarked) [Compound 3ZFH18, 2-(hydroxymethyl)-6-[4-[3-(hydroxymethyl)phenyl]phenoxy]tetrahydropyran-3,4,5-triol]
HAI Titer EC>90: 3.000 µM

COC(=O)c1cc2ccc(OC3OC(CO)C(O)C(O)C3O)cc2s1 (centres unmarked) [Compound 2ZFH304, methyl 6-[3,4,5-trihydroxy-6-(hydroxymethyl)tetrahydropyran-2-yl]oxybenzothiophene-2-carboxylate]
HAI Titer EC>90: 2.000 µM

COC(=O)c1cc2cc(OC3OC(CO)C(O)C(O)C3O)ccc2s1 (centres unmarked) [Compound 2ZFH297, methyl 5-[3,4,5-trihydroxy-6-(hydroxymethyl)tetrahydropyran-2-yl]oxybenzothiophene-2-carboxylate]
HAI Titer EC>90: 2.000 µM

O=C(Nc1ccncc1)c1cccc(-c2ccc(OC3OC(CO)C(O)C(O)C3O)cc2)c1 (centres unmarked) [Compound 3ZFH256, N-(4-pyridyl)-3-[4-[3,4,5-trihydroxy-6-(hydroxymethyl)tetrahydropyran-2-yl]oxyphenyl]benzamide]
HAI Titer EC>90: 0.25 µM

O=[N+]([O-])c1ccc(COC2OC(CO)C(O)C(O)C2O)cc1 (centres unmarked) [Compound 1ZFH152, 2-(hydroxymethyl)-6-[(4-nitrophenyl)methoxy]tetrahydropyran-3,4,5-triol]
HAI Titer EC>90: 60.000 µM

COC(=O)c1cccc(-c2ccc(SC3OC(CO)C(O)C(O)C3O)cc2)c1 (centres unmarked) [Compound 4ZFH55, methyl 3-[4-[3,4,5-trihydroxy-6-(hydroxymethyl)tetrahydropyran-2-yl]sulfanylphenyl]benzoate]
HAI Titer EC>90: 4.000 µM

OCC1OC(Oc2ccc(Br)cc2)C(O)C(O)C1O (centres unmarked) [Compound 2ZFH46, 2-(4-bromophenoxy)-6-(hydroxymethyl)tetrahydropyran-3,4,5-triol]
HAI Titer EC>90: 32.000 µM

COC(=O)c1cccc(-c2ccc(OC3OC(CO)C(O)C(O)C3O)cc2)c1 (centres unmarked) [Compound 2ZFH238]
HAI Titer EC>50: >2500 µM

COC(=O)c1cccc(-c2ccc(NC(=O)C3OC(CO)C(O)C(O)C3O)cc2)c1 (centres unmarked) [Compound 4ZFH89, methyl 3-[4-[[3,4,5-trihydroxy-6-(hydroxymethyl)tetrahydropyran-2-carbonyl]amino]phenyl]benzoate]
HAI Titer EC>90: 16.000 µM

COC(=O)c1cccc(-c2ccc(OC3OC(CO)C(O)C(O)C3O)c(Cl)c2)c1 (centres unmarked) [Compound 4ZFH49, methyl 3-[3-chloro-4-[3,4,5-trihydroxy-6-(hydroxymethyl)tetrahydropyran-2-yl]oxy-phenyl]benzoate]
HAI Titer EC>90: 0.032 µM

OCc1ccccc1-c1ccc(OC2OC(CO)C(O)C(O)C2O)cc1 (centres unmarked) [Compound 14g]
fold less potent in HA titer (ortho 14g relative to meta 14h): over 5 fold
EC50 (read-out: 50% HA titer, Example 6 numbering): 16 µM
EC90 (read-out: HA 50% titer EC90, Table 12, Example 6 numbering): 16 µM

COC(=O)c1cccc(-c2ccc(OC3O[C@@H](CO)[C@@H](O)[C@H](O)[C@H]3O)c(F)c2)c1 (stereo partly drawn) [Compound 4ZFH220, methyl 3-[3-fluoro-4-[(3R,4S,5S,6S)-3,4,5-trihydroxy-6-(hydroxymethyl)tetrahydropyran-2-yl]oxy-phenyl]benzoate]
HAI Titer EC>90: 0.750 µM
HAI Titer EC>50 (ZFH/JWJ codes): 0.750 µM
HAI Titer EC>90 (Table 22, ZFH/JWJ codes): 0.750 µM

O=C(NCCCCOC1OC(CO)C(O)C(O)C1O)c1ccc(-c2c3ccc(=O)cc-3oc3cc(O)ccc23)c(C(=O)O)c1 (centres unmarked) [Compound 1ZFH134]
HAI Titer EC>50 (ZFH/JWJ codes): 125.000 µM

COC(=O)c1csc(-c2ccc(O[C@H]3O[C@H](CO)[C@@H](O)[C@H](O)[C@@H]3O)cc2)c1 [Compound 13d]
HAI Titer EC>90 [2]: 2.0 µM

CNC(=O)c1cc(C(=O)NC)cc(-c2ccc(OC3O[C@@H](CO)[C@@H](O)[C@H](O)[C@H]3O)c(C)c2)c1 (stereo partly drawn) [Compound 4ZFH284, N1,N3-dimethyl-5-[3-methyl-4-[(3R,4S,5S,6S)-3,4,5-trihydroxy-6-(hydroxymethyl)tetrahydropyran-2-yl]oxy-phenyl]benzene-1,3-dicarboxamide]
HAI Titer EC>90: 0.016 µM
HAI Titer EC>50 (ZFH/JWJ codes): 0.016 µM
HAI Titer EC>90 (Table 22, ZFH/JWJ codes): 0.016 µM

O=C(Nc1cccnc1)c1cccc(-c2ccc(OC3OC(CO)C(O)C(O)C3O)cc2)c1 (centres unmarked) [Compound 3ZFH265, N-(3-pyridyl)-3-[4-[3,4,5-trihydroxy-6-(hydroxymethyl)tetrahydropyran-2-yl]oxyphenyl]benzamide]
HAI Titer EC>90: 0.375 µM

OC[C@@H]1OC(Oc2ccc(-c3ccc4ncncc4c3)cc2)[C@H](O)[C@@H](O)[C@@H]1O (stereo partly drawn) [Compound 4ZFH247, (2S,3S,4S,5R)-2-(hydroxymethyl)-6-(4-quinazolin-6-ylphenoxy)tetrahydropyran-3,4,5-triol]
HAI Titer EC>90: 0.375 µM
HAI Titer EC>50 (ZFH/JWJ codes): 0.375 µM
HAI Titer EC>90 (Table 22, ZFH/JWJ codes): 0.375 µM

COC(=O)c1cc(-c2ccc(OC3OC(CO)C(O)C(O)C3O)cc2)ccn1 [Compound 3ZFH220, methyl 4-[4-(a-D-mannopyranosyloxy)phenyl]pyridine-2-carboxylate]
HAI Titer EC>90: 0.500 µM

O=C(NCCO)c1cccc(-c2ccc(O[C@H]3O[C@H](CO)[C@@H](O)[C@H](O)[C@@H]3O)cc2)c1 [Compound 10a, N-(2-Hydroxyethyl)-3-[4-[(2R,3S,4S,5S,6R)-3,4,5-trihydroxy-6-(hydroxymethyl)tetrahydropyran-2-yl]oxyphenyl]benzamide]
HAI Titer EC>90 [1]: 0.50 µM

OCC1OC(Oc2ccc(-c3ccncc3)cc2)C(O)C(O)C1O (centres unmarked) [Compound 3ZFH96, 2-(hydroxymethyl)-6-[4-(4-pyridyl)phenoxy]tetrahydropyran-3,4,5-triol]
HAI Titer EC>90: 2.000 µM

O=c1[nH]ccc2ccc(-c3ccc(OC4OC(CO)C(O)C(O)C4O)cc3)cc12 (centres unmarked) [Compound 5ZFH63]
HAI Titer EC>50 (ZFH/JWJ codes): 0.100 µM

Source: patent US8937167B2 (Washington University, priority 2009, dated 2015)
